Reference: ChEMBL document CHEMBL4295262, “Evaluation of the utility of stem-cell derived cardiomyocytes for drug proarrhythmic potential” (2019)

Experiments:
[1] = (§1) Electrical activity assay on cell lines treated with a given drug. DMSO was used as a vehicle and a control, unblinded dofetilide was used as a control.; type: ADME, cell-based; conditions: human, ipsc-cm, 0.003 µM; concentration (um) 0.003 uM
[2] = as §1; type: ADME, cell-based; conditions: human, ipsc-cm, 0.005 µM; concentration (um) 0.005 uM
[3] = as §1; conditions: human, ipsc-cm
[4] = as §1; type: ADME, cell-based; design: FPDc: unit not given here; conditions: human, ipsc-cm
[5] = as §1; conditions: human, ipsc-cm; remark: listed apart in the source
[6] = as §1; conditions: human, ipsc-cm, 0.003 µM
[7] = as §1; conditions: human, ipsc-cm; remark: listed apart in the source
[8] = as §1; type: cell-based; design: APDc: unit not given here; conditions: human, ipsc-cm
[9] = as §1; type: ADME, cell-based; design: FPDc: unit not given here; conditions: human, ipsc-cm, 0.003 µM; concentration (um) 0.003 uM
[10] = 0.0032 µM, concentration (um) 0.0032 uM
[11] = 0.01 µM, concentration (um) 0.01 uM
[12] = 0.0003169 µM, concentration (um) 0.000316912 uM
[13] = 0.001001 µM, concentration (um) 0.00100144 uM
[14] = 0.003165 µM, concentration (um) 0.00316456 uM
[15] = 0.005 µM, concentration (um) 0.005 uM

## CN(CCOc1ccc(NS(C)(=O)=O)cc1)CCc1ccc(NS(C)(=O)=O)cc1 [DOFETILIDE]
[1]
  FPD measurement: More Than Half The Wells Had A Quiescence Event Or Apdc Readings Of 0
  FPDc: More Than Half The Wells Had A Quiescence Event Or Fpdc Readings Of 0
[2]
  FPD measurement: 59.84 FPDc
  FPDc: 24 Values Out Of 24 Were Excluded Due To Quiescence Or 0 Fpdc
[3]; 0.0003169 µM
  FPD measurement: 1 Values Out Of 1 Were Excluded Due To Quiescence Or 0 Fpdc
  FPDc: 1 Values Out Of 1 Were Excluded Due To Quiescence Or 0 Fpdc
[3]; 0.001001 µM
  FPD measurement: 1 Values Out Of 1 Were Excluded Due To Quiescence Or 0 Fpdc
  FPDc: 1 Values Out Of 1 Were Excluded Due To Quiescence Or 0 Fpdc
[3]; 0.003165 µM
  FPD measurement: 1 Values Out Of 1 Were Excluded Due To Quiescence Or 0 Fpdc
  FPDc: 1 Values Out Of 1 Were Excluded Due To Quiescence Or 0 Fpdc
[3]; 0.01 µM
  FPD measurement: 1 Values Out Of 1 Were Excluded Due To Quiescence Or 0 Fpdc
  FPDc: 1 Values Out Of 1 Were Excluded Due To Quiescence Or 0 Fpdc
[4]; 0.0003 µM, concentration (um) 0.0003 uM
  FPDc: 0.03867
[4]; 0.001 µM, concentration (um) 0.001 uM
  FPDc: 0.04061
[4]; 0.003 µM, concentration (um) 0.003 uM
  FPDc: 0.05119
[4]; [10]
  FPD measurement: More Than Half The Wells Had A Quiescence Event Or Fpdc Readings Of 0
  FPDc: More Than Half The Wells Had A Quiescence Event Or Fpdc Readings Of 0
[4]; [11]
  FPD measurement: More Than Half The Wells Had A Quiescence Event Or Fpdc Readings Of 0
  FPDc: More Than Half The Wells Had A Quiescence Event Or Fpdc Readings Of 0
[5]; 0.0003169 µM
  FPD measurement: 57.26 FPDc
  FPDc: 57.26
[5]; 0.001001 µM
  FPD measurement: 62.9 FPDc
  FPDc: 62.9
[5]; 0.003 µM
  FPD measurement: 58.92 FPDc
  FPDc: 58.92
[5]; 0.003165 µM
  FPD measurement: 74.44 FPDc
  FPDc: 74.44
[5]; 0.0033 µM
  FPD measurement: 77.41 FPDc
  FPDc: 77.41
[5]; 0.01 µM
  FPD measurement: More Than Half The Wells Had A Quiescence Event Or Fpdc Readings Of 0
  FPDc: More Than Half The Wells Had A Quiescence Event Or Fpdc Readings Of 0
[6]
  APDc: 63.81
  FPD measurement: 63.81 FPDc
[7]; 0.0003169 µM
  FPD measurement: 5 Values Out Of 5 Were Excluded Due To Quiescence Or 0 Apdc
  FPDc: 74.54
[7]; 0.001001 µM
  FPD measurement: 5 Values Out Of 5 Were Excluded Due To Quiescence Or 0 Apdc
  FPDc: 77.51
[7]; 0.003 µM
  FPDc: 91.98
[7]; 0.003165 µM
  FPD measurement: 5 Values Out Of 5 Were Excluded Due To Quiescence Or 0 Apdc
  FPDc: 81.19
[7]; 0.01 µM
  FPD measurement: 5 Values Out Of 5 Were Excluded Due To Quiescence Or 0 Apdc
  FPDc: More Than Half The Wells Had A Quiescence Event Or Fpdc Readings Of 0
[8]; [12]
  APDc: 62.54
  FPD measurement: 62.54 FPDc
[8]; [13]
  APDc: 77.55
  FPD measurement: 77.55 FPDc
[8]; [14]
  APDc: 79.29
  FPD measurement: 79.29 FPDc
[8]; [15]
  APDc: 61.92
  FPD measurement: 61.92 FPDc
[9]
  FPDc: 32.45
